Experiments:
[1] = molecular target: T1, Serine/threonine-protein kinase BRSK1 (Homo sapiens) (UniProt Q8TDC3); test: Inhibition of human BRSK1 at 500 nM by HotSpot assay relative to control
T1 sequence (whole entry): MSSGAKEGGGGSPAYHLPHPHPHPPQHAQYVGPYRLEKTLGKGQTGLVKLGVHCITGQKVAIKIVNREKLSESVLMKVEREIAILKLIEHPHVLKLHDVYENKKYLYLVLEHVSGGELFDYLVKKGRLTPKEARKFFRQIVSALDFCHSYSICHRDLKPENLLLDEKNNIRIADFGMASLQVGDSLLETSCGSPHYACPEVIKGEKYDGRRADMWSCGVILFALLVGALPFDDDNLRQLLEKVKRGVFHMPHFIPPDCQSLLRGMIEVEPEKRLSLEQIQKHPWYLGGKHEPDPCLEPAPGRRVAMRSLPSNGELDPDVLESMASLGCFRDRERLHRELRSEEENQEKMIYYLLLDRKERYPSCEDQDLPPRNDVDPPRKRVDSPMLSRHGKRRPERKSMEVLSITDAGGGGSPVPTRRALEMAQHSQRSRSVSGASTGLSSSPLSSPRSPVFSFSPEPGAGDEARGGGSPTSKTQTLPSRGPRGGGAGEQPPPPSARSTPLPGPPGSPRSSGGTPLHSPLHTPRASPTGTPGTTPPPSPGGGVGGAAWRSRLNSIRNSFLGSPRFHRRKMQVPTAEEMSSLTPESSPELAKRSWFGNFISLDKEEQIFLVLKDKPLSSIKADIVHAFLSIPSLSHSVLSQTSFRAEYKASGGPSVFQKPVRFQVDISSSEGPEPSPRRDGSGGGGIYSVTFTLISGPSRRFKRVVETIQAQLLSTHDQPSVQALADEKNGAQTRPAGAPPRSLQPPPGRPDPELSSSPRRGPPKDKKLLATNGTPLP

[2] = molecular target: Tyrosine-protein kinase JAK1 (Homo sapiens) (UniProt P23458); test: Inhibition of human JAK1 at 500 nM by HotSpot assay relative to control
[3] = molecular target: Ribosomal protein S6 kinase beta-1 (Homo sapiens) (UniProt P23443); test: Inhibition of human RPS6KB1 at 500 nM by HotSpot assay relative to control
[4] = molecular target: Serine/threonine-protein kinase PAK 6 (Homo sapiens) (UniProt Q9NQU5); test: Inhibition of human PAK6 at 500 nM by HotSpot assay relative to control
[5] = molecular target: Platelet-derived growth factor receptor alpha (Homo sapiens) (UniProt P16234); test: Inhibition of human PDGFRa at 500 nM by HotSpot assay relative to control
[6] = molecular target: Protein kinase C beta type (Homo sapiens) (UniProt P05771); test: Inhibition of human PKCb2 at 500 nM by HotSpot assay relative to control
[7] = molecular target: T2, cGMP-dependent protein kinase 1 (Homo sapiens) (UniProt Q13976); test: Inhibition of human PKG1a at 500 nM by HotSpot assay relative to control
T2 sequence (whole entry): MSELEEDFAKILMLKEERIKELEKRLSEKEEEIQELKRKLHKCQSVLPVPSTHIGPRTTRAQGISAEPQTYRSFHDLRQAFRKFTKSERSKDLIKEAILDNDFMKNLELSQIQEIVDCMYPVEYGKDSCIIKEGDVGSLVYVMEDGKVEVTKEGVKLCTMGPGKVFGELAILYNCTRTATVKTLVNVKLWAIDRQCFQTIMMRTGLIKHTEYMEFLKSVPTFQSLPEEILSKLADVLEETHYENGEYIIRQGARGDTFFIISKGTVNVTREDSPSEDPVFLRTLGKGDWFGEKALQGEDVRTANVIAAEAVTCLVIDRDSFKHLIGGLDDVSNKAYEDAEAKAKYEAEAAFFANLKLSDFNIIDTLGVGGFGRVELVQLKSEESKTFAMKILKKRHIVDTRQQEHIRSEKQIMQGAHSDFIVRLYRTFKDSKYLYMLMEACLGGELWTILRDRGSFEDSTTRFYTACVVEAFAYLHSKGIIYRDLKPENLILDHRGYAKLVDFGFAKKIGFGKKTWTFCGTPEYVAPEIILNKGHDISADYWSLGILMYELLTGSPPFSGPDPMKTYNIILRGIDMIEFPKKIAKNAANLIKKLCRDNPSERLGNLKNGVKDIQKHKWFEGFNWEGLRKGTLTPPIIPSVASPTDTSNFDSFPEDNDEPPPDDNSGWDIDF

[8] = molecular target: T3, cGMP-dependent protein kinase 2 (Homo sapiens) (UniProt Q13237); test: Inhibition of human PRKG2 at 500 nM by HotSpot assay relative to control
T3 sequence (whole entry): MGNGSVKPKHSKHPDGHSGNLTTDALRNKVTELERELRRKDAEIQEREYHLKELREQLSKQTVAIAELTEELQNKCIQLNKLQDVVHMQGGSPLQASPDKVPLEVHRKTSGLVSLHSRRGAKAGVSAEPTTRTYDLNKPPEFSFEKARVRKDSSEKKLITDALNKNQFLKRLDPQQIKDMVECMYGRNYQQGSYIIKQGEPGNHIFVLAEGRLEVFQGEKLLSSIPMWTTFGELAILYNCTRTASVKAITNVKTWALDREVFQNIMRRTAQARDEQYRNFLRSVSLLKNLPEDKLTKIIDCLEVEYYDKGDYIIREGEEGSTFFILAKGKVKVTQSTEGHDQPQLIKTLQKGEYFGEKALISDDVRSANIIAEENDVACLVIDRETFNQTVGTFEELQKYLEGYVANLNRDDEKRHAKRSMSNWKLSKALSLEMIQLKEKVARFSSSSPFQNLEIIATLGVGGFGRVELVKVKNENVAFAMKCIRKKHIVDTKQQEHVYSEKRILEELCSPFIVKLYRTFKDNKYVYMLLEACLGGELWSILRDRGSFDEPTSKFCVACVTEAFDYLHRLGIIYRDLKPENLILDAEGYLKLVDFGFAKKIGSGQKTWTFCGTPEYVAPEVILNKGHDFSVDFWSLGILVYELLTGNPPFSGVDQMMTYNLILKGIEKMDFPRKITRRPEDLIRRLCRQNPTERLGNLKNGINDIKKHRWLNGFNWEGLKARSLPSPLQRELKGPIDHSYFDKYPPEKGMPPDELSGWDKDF

Sequence of Ribosomal protein S6 kinase beta-1 (Homo sapiens) (P23443 whole entry, looked up): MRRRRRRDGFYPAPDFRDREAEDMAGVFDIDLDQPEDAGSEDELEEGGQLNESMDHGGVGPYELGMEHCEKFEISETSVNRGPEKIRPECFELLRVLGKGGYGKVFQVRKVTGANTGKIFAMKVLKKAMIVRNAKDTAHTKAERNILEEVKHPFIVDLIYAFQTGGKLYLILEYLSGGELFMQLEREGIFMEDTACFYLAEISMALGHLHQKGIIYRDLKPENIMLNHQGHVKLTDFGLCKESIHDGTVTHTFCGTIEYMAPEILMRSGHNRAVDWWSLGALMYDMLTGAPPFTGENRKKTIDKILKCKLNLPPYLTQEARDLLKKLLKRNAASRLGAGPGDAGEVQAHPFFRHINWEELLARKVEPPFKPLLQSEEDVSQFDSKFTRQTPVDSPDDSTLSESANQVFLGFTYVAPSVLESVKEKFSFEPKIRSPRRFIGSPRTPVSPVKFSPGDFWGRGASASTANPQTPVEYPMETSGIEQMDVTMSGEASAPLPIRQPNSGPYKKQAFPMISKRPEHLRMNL
Sequence of Protein kinase C beta type (Homo sapiens) (P05771 2-671 limits assumed): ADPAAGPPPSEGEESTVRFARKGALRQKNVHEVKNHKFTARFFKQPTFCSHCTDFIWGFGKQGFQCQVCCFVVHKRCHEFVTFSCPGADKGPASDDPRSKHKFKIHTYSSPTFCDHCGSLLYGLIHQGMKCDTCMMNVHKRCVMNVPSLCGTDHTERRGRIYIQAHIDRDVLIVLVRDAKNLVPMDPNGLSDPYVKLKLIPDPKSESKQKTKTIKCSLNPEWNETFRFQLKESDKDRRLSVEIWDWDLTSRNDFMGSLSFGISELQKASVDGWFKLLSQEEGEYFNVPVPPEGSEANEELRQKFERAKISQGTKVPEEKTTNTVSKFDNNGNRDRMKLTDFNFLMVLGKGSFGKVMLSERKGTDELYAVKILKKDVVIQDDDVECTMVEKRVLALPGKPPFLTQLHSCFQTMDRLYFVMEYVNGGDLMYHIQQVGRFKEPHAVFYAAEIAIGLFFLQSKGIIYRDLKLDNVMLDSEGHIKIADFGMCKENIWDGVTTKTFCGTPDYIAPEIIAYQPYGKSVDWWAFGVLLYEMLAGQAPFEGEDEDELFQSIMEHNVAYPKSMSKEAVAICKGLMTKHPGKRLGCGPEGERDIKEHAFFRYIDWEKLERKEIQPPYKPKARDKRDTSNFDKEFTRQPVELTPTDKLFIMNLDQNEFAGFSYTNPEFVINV
Sequence of Platelet-derived growth factor receptor alpha (Homo sapiens) (P16234 whole entry): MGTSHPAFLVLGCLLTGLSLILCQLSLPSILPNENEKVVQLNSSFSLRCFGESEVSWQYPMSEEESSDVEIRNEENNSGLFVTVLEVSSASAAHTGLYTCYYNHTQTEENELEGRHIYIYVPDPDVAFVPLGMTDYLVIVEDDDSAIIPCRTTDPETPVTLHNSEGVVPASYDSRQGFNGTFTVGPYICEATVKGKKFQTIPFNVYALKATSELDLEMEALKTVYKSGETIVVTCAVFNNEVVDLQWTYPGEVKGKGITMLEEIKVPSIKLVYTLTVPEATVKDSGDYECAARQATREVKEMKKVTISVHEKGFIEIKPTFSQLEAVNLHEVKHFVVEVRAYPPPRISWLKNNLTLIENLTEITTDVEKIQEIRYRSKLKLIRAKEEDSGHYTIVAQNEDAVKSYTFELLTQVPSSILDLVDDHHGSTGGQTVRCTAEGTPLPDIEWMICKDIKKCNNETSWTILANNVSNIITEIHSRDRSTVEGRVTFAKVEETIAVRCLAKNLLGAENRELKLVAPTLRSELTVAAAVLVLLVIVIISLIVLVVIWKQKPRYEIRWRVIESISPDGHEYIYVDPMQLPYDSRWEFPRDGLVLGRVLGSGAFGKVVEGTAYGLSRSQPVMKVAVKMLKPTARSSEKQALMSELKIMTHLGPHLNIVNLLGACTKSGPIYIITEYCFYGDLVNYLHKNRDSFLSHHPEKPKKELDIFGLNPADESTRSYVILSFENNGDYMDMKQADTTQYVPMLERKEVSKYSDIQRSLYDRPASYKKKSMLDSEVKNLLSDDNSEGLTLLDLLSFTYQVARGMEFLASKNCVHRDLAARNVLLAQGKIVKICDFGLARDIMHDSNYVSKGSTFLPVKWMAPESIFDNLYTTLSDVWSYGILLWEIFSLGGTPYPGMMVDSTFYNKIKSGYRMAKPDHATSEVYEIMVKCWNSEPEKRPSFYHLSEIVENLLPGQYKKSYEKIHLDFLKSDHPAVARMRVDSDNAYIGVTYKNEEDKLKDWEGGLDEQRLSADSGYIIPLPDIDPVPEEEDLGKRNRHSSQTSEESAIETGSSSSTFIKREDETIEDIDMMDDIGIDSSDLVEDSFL
Sequence of Tyrosine-protein kinase JAK1 (Homo sapiens) (P23458 whole entry): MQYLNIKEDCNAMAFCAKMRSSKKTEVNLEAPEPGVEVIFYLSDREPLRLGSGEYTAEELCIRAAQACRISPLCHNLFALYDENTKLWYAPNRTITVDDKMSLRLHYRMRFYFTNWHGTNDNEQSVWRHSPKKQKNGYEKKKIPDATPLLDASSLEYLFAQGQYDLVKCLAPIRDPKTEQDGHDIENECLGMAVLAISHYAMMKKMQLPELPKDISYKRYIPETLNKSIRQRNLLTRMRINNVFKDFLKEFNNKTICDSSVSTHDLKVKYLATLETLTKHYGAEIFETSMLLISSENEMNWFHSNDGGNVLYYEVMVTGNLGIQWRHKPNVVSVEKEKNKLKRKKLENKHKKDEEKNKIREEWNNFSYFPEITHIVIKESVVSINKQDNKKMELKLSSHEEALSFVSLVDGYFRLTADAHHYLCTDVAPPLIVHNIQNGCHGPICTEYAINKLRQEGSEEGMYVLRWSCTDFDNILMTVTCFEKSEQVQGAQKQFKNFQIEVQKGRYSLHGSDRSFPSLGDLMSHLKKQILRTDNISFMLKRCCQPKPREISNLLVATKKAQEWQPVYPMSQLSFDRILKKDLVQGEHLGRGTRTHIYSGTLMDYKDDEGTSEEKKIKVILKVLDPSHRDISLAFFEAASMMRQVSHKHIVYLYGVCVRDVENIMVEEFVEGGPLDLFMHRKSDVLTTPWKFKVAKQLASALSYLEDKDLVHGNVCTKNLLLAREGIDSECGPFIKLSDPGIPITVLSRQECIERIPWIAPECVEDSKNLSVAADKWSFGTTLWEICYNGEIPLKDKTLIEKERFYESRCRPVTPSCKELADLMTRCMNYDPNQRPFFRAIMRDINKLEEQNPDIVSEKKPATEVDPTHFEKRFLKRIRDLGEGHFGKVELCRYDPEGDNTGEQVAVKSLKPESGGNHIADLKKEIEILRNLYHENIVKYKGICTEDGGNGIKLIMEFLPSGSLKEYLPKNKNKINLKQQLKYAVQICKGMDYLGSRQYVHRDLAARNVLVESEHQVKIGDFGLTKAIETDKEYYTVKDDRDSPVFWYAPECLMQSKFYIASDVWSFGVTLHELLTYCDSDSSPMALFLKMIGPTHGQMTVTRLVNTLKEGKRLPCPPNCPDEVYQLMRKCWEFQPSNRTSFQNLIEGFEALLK
Sequence of Serine/threonine-protein kinase PAK 6 (Homo sapiens) (Q9NQU5 whole entry, looked up): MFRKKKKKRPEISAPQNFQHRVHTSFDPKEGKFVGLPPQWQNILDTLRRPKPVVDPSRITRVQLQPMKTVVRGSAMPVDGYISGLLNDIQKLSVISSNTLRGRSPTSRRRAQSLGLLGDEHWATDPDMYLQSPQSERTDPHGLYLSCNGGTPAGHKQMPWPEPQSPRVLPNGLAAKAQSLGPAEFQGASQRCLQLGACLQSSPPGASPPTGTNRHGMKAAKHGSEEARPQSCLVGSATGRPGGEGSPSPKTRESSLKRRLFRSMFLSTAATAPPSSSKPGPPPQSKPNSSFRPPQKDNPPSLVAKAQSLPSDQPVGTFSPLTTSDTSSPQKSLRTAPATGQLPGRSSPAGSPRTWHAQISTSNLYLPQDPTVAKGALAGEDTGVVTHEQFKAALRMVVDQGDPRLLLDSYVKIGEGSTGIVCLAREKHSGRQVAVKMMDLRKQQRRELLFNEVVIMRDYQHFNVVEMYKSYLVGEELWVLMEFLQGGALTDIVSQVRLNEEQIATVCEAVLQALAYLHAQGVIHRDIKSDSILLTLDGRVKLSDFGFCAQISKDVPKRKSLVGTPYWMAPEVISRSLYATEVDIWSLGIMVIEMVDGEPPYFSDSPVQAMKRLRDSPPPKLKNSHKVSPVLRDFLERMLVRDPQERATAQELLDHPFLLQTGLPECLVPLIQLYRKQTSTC

`Oc1n[nH]c2nnc(-c3c(-c4ccccc4)nn4ccccc34)cc12` showed an inhibition [1] of -2.29%, an inhibition [2] of -1.98% and an inhibition [3] of -2.37%. For the same compound, the inhibition [4] was 1.63%, the inhibition [5] was -1.33% and the inhibition [6] was -2.98%. The inhibition [7] was -5.37% and the inhibition [8] was 1.76%.
`Nc1n[nH]c2nnc(-c3c(-c4ccccc4)nn4ccccc34)cc12` gave an inhibition [1] of 1.41%, an inhibition [2] of -3.59% and an inhibition [3] of 2.28%. It also gave an inhibition [4] of 3.58%, an inhibition [5] of 0.32% and an inhibition [6] of 0.34%. It also gave an inhibition [7] of 6.39% and an inhibition [8] of -3.62%.

Source: ChEMBL document CHEMBL5653615 (J Biol Chem, 2013)
